Test results reported in ChEMBL document CHEMBL1201862, “PubChem BioAssay data set” (2004).
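Compound exposure: 48 hours, 5 concentrations, 96-well plates. GI50 = concentration required for 50% inhibition of growth.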 Active and inactive are the calls of the source. Cut-off read from the data, not from the text of the source: active = GI50 up to about 1.1 µM and inactive = higher.

Key:
Assay in all cases: DTP human tumour cell line panel, 48 h
CCRF-CEM = test system: CCRF-CEM
HCT-116 = test system: HCT-116
HCT-15 = test system: HCT-15
HOP-62 = test system: HOP-62
HT-29 = test system: HT-29
LOX IMVI = test system: LOX IMVI
MOLT-4 = test system: MOLT-4
SF-295 = test system: SF-295
SF-539 = test system: SF-539
SK-MEL-28 = test system: SK-MEL-28
SK-MEL-2 = test system: SK-MEL-2
SK-MEL-5 = test system: SK-MEL-5
SN12C = test system: SN12C
TK-10 = test system: TK-10
U-251 = test system: U-251
UACC-257 = test system: UACC-257
UO-31 = test system: UO-31
KM12 = test system: KM12
T47D = test system: T47D

Compound | GI50 (CCRF-CEM) | GI50 (HCT-116) | GI50 (HCT-15) [µM] | GI50 (HOP-62) | GI50 (HT-29) | GI50 (LOX IMVI) | GI50 (MOLT-4) | GI50 (SF-295) | GI50 (SF-539) | GI50 (SK-MEL-28) | GI50 (SK-MEL-2) | GI50 (SK-MEL-5) | GI50 (SN12C) | GI50 (TK-10) | GI50 (U-251) | GI50 (UACC-257) | GI50 (UO-31) | GI50 (KM12) | GI50 (T47D)
CCN1CCC(O)(c2ccc(Cl)c(Cl)c2)C(C(=O)c2ccc(Cl)c(Cl)c2)C1 (stereo not given) | 17.1 µM (inactive) | 18.5 µM (inactive) | 18.8 | 18.3 µM (inactive) | 18.2 µM (inactive) | 17.8 µM (inactive) | 15.1 µM (inactive) | 17.6 µM (inactive) | 17.7 µM (inactive) | 18.2 µM (inactive) | 17.3 µM (inactive) | 16.9 µM (inactive) | 17.8 µM (inactive) | 16.5 µM (inactive) | 18 µM (inactive) | 18.2 µM (inactive) | 17.3 µM (inactive) | – | –
CN(C)P(=O)(/C(N)=N/Nc1ccc([N+](=O)[O-])cc1)N(C)C | > 100 µM (inactive) | > 100 µM (inactive) | > 100 | > 100 µM (inactive) | – | > 100 µM (inactive) | > 100 µM (inactive) | – | > 100 µM (inactive) | > 100 µM (inactive) | > 100 µM (inactive) | > 100 µM (inactive) | > 100 µM (inactive) | > 100 µM (inactive) | > 100 µM (inactive) | > 100 µM (inactive) | > 100 µM (inactive) | > 100 µM (inactive) | –
O=C(c1ccc(Cl)cc1)N(C(=S)N1CCN(c2ccccn2)CC1)c1ccccc1 | > 100 µM (inactive) | 97.5 µM (inactive) | > 100 | > 100 µM (inactive) | > 100 µM (inactive) | > 100 µM (inactive) | 43.6 µM (inactive) | 99.3 µM (inactive) | > 100 µM (inactive) | > 100 µM (inactive) | > 100 µM (inactive) | 39.6 µM (inactive) | > 100 µM (inactive) | > 100 µM (inactive) | > 100 µM (inactive) | > 100 µM (inactive) | 68.9 µM (inactive) | > 100 µM (inactive) | –
CC12CCC([C@H](N3CCOCC3)/C1=N\OCCN1CCCC1)C2(C)C (stereo not given in full) | > 100 µM (inactive) | > 100 µM (inactive) | > 100 | > 100 µM (inactive) | > 100 µM (inactive) | > 100 µM (inactive) | > 100 µM (inactive) | > 100 µM (inactive) | > 100 µM (inactive) | > 100 µM (inactive) | > 100 µM (inactive) | > 100 µM (inactive) | > 100 µM (inactive) | > 100 µM (inactive) | > 100 µM (inactive) | > 100 µM (inactive) | > 100 µM (inactive) | > 100 µM (inactive) | –
COc1cc(C(=O)C/C(CCC(=O)Nc2ccc(Cl)cc2Cl)=N/Nc2nnc(C)n2N)ccc1O | > 100 µM (inactive) | > 100 µM (inactive) | > 100 | > 100 µM (inactive) | > 100 µM (inactive) | > 100 µM (inactive) | – | > 100 µM (inactive) | > 100 µM (inactive) | > 100 µM (inactive) | > 100 µM (inactive) | > 100 µM (inactive) | > 100 µM (inactive) | > 100 µM (inactive) | > 100 µM (inactive) | > 100 µM (inactive) | > 100 µM (inactive) | > 100 µM (inactive) | –
CCOC(=O)c1sc2c(c1OC(=O)c1ccccc1)c(=O)n(-c1ccccc1)c(=S)n2-c1ccccc1 | 41.8 µM (inactive) | 16.2 µM (inactive) | 45.5 | 22.9 µM (inactive) | 19.2 µM (inactive) | 40.3 µM (inactive) | 42.8 µM (inactive) | 49.7 µM (inactive) | 20.6 µM (inactive) | 32.2 µM (inactive) | – | 20.7 µM (inactive) | > 100 µM (inactive) | 70.1 µM (inactive) | 20.3 µM (inactive) | 87.3 µM (inactive) | – | 40.6 µM (inactive) | 63.7 µM (inactive)
CN1CCN(Cn2nc(-c3ccccc3)n(/N=C/c3ccc(-c4ccc(Cl)cc4Cl)o3)c2=S)CC1 | 4.17 µM (inactive) | 3.66 µM (inactive) | 4.18 | 11.4 µM (inactive) | 12.3 µM (inactive) | 13 µM (inactive) | 0.0713 µM (active) | 11.4 µM (inactive) | 13.5 µM (inactive) | 12.1 µM (inactive) | 20.7 µM (inactive) | 7.71 µM (inactive) | – | 15.1 µM (inactive) | 5.25 µM (inactive) | 18 µM (inactive) | 14.8 µM (inactive) | 9.73 µM (inactive) | 15.5 µM (inactive)
CCOC(=O)/C(=C/c1cccc(C#N)c1)N(CC)CC | > 100 µM (inactive) | > 100 µM (inactive) | > 100 | > 100 µM (inactive) | > 100 µM (inactive) | > 100 µM (inactive) | > 100 µM (inactive) | > 100 µM (inactive) | > 100 µM (inactive) | > 100 µM (inactive) | > 100 µM (inactive) | > 100 µM (inactive) | > 100 µM (inactive) | > 100 µM (inactive) | > 100 µM (inactive) | > 100 µM (inactive) | > 100 µM (inactive) | > 100 µM (inactive) | –
COC(=O)c1ccccc1C1=C([N+](=O)[O-])C(c2cccc(Br)c2)C(C#N)=C(N)O1 (stereo not given) | 20.8 µM (inactive) | 31.5 µM (inactive) | 19.4 | 33 µM (inactive) | 43.5 µM (inactive) | 19.4 µM (inactive) | 25.4 µM (inactive) | > 100 µM (inactive) | 61 µM (inactive) | 52.6 µM (inactive) | > 100 µM (inactive) | 86.5 µM (inactive) | 38 µM (inactive) | 46.5 µM (inactive) | > 100 µM (inactive) | 36.1 µM (inactive) | – | > 10 µM (inactive) | 28.3 µM (inactive)
CCOC(=O)C(C(=O)OCC)S(C)(=O)=O | > 100 µM (inactive) | > 100 µM (inactive) | – | > 100 µM (inactive) | > 100 µM (inactive) | > 100 µM (inactive) | > 100 µM (inactive) | > 100 µM (inactive) | > 100 µM (inactive) | > 100 µM (inactive) | > 100 µM (inactive) | > 100 µM (inactive) | > 100 µM (inactive) | > 100 µM (inactive) | > 100 µM (inactive) | > 100 µM (inactive) | > 100 µM (inactive) | > 100 µM (inactive) | –
c1ccc(CN2CCCCC(Sc3ccccc3)CC2)cc1 (stereo not given) | 19.2 µM (inactive) | 27.2 µM (inactive) | 17.6 | 64.4 µM (inactive) | 17.7 µM (inactive) | 16.5 µM (inactive) | 20.8 µM (inactive) | 40.5 µM (inactive) | 29.8 µM (inactive) | 45.3 µM (inactive) | 32.9 µM (inactive) | 18.7 µM (inactive) | 24.7 µM (inactive) | 58.7 µM (inactive) | 15.9 µM (inactive) | > 100 µM (inactive) | 15.3 µM (inactive) | > 100 µM (inactive) | –
Nc1cnc(Nc2cccc3ccccc23)o1 | > 10 µM (inactive) | > 10 µM (inactive) | > 10 | > 10 µM (inactive) | > 10 µM (inactive) | > 10 µM (inactive) | – | > 10 µM (inactive) | > 10 µM (inactive) | > 10 µM (inactive) | > 10 µM (inactive) | > 10 µM (inactive) | > 10 µM (inactive) | > 10 µM (inactive) | > 10 µM (inactive) | > 10 µM (inactive) | > 10 µM (inactive) | > 10 µM (inactive) | > 10 µM (inactive)
COC(=O)c1cc2cc(OC)c(OC)cc2cc(C(=O)OC)c1=O | > 100 µM (inactive) | > 100 µM (inactive) | > 100 | > 100 µM (inactive) | > 100 µM (inactive) | 87.3 µM (inactive) | > 100 µM (inactive) | > 100 µM (inactive) | > 100 µM (inactive) | – | > 100 µM (inactive) | > 100 µM (inactive) | > 100 µM (inactive) | > 100 µM (inactive) | > 100 µM (inactive) | > 100 µM (inactive) | > 100 µM (inactive) | > 100 µM (inactive) | –
N#CC(C(=O)/C(=N/N)C(C#N)c1ccccc1)c1ccccc1 (stereo not given) | > 100 µM (inactive) | > 100 µM (inactive) | > 100 | > 100 µM (inactive) | > 100 µM (inactive) | > 100 µM (inactive) | > 100 µM (inactive) | > 100 µM (inactive) | > 100 µM (inactive) | > 100 µM (inactive) | > 100 µM (inactive) | > 100 µM (inactive) | > 100 µM (inactive) | > 100 µM (inactive) | > 100 µM (inactive) | > 100 µM (inactive) | > 100 µM (inactive) | > 100 µM (inactive) | –
CC(=O)O[C@H]1CCC2[C@@H]3CCC4c5nonc5CC[C@]4(C)C3CC[C@@]21C (stereo not given in full) | > 10 µM (inactive) | > 10 µM (inactive) | > 10 | > 10 µM (inactive) | > 10 µM (inactive) | > 10 µM (inactive) | > 10 µM (inactive) | > 10 µM (inactive) | > 10 µM (inactive) | > 10 µM (inactive) | > 10 µM (inactive) | > 10 µM (inactive) | > 10 µM (inactive) | > 10 µM (inactive) | > 10 µM (inactive) | > 10 µM (inactive) | > 10 µM (inactive) | > 10 µM (inactive) | –
CC(O)c1ccc[n+](Cc2ccccc2)c1 (stereo not given) | > 400 µM (inactive) | > 400 µM (inactive) | > 400 | > 400 µM (inactive) | > 400 µM (inactive) | > 400 µM (inactive) | > 400 µM (inactive) | > 400 µM (inactive) | > 400 µM (inactive) | > 400 µM (inactive) | > 400 µM (inactive) | > 400 µM (inactive) | > 400 µM (inactive) | > 400 µM (inactive) | > 400 µM (inactive) | > 400 µM (inactive) | – | > 400 µM (inactive) | –
